Measured values reported in patent publication US20160046618A1, “Cyclopropyl Fused Thiazin-2-Amine Compounds as Beta-Secretase Inhibitors and Methods of Use” (AMGEN INC., priority 2014, published 2016).
Read-outs that look alike come from different tables or passages of the source.

What was measured:
[1] = test system: Aβ40 in conditioned medium of cells stably expressing Amyloid Precursor Protein (APP); assay: In vitro BACE-1 cell-based assay (Aβ40 sandwich ELISA); conditions: read-out: IC50 IP (μM) BACE1 cell
Summary of the method: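 APP-expressing cells treated 24 h at 37 °C with compound in 10-point dose response (top 100 μM or 10 μM, 0.1% DMSO final). Secreted Aβ40 in conditioned medium quantified by sandwich ELISA (pAb40 capture, biotinylated 6E10 detection, time-resolved europium fluorescence); IC50 from percent inhibition versus concentration.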

[2] = target: human recombinant BACE1 (Homo sapiens (Human), UniProt P56817); assay: In vitro enzymatic BACE1 FRET assay; type: biochemical; conditions: read-out: IC50 IP (μM) BACE1 enzyme
Sequence of human recombinant BACE1 (P56817 46-501): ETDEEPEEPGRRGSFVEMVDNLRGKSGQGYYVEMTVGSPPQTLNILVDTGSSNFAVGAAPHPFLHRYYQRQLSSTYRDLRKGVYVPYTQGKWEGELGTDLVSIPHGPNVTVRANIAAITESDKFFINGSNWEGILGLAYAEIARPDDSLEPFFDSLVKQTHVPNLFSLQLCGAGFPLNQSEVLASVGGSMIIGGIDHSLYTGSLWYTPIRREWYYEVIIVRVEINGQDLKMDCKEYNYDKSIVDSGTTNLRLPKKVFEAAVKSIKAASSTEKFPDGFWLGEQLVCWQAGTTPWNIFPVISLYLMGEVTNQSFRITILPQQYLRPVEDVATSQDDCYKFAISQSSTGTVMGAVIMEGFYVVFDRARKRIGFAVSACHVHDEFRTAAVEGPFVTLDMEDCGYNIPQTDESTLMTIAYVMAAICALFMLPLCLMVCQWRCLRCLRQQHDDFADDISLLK
Summary of the method: (§1)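 Ni-NTA-purified recombinant protease incubated with compound; reaction started with 50 nM FRET peptide substrate (fluorophore/quencher flanking the BACE cleavage site) and run 1 h. Stopped with Tris buffer raising pH to neutral; fluorescence read at ex 488/em 590 nm.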

[3] = target: Recombinant Cat D (Homo sapiens (Human), UniProt P07339); assay: In vitro enzymatic Cathepsin D (Cat D) FRET assay; type: biochemical; conditions: read-out: IC50 IP (μM) CatD
Sequence of Recombinant Cat D (P07339 65-412): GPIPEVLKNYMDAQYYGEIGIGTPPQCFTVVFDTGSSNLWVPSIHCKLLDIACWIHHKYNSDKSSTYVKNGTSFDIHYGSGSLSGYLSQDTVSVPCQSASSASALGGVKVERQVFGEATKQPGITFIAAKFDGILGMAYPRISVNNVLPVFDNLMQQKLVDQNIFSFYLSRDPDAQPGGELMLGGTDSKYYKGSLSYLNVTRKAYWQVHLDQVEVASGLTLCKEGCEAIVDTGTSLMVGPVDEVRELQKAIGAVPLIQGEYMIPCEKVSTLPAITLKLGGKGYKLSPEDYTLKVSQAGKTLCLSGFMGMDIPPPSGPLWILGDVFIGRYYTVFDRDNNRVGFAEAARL
Summary of the method: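 Human Cat D expressed in CHO cells was incubated for one hour in 0.05 M citrate pH 3.5, 5 mM CHAPS, 10% DMSO final, with 20 nM quenched FRET peptide substrate. Reactions were stopped with Tris buffer raising pH to neutrality. Cleavage was read as fluorescence at excitation 500 nm, emission 580 nm.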

[4] = target: human recombinant BACE2 (Homo sapiens (Human), UniProt Q9Y5Z0); assay: In vitro enzymatic BACE2 FRET assay; type: biochemical; conditions: read-out: IC50 IP (μM) BACE2 enzyme
Sequence of human recombinant BACE2 (Q9Y5Z0 63-518): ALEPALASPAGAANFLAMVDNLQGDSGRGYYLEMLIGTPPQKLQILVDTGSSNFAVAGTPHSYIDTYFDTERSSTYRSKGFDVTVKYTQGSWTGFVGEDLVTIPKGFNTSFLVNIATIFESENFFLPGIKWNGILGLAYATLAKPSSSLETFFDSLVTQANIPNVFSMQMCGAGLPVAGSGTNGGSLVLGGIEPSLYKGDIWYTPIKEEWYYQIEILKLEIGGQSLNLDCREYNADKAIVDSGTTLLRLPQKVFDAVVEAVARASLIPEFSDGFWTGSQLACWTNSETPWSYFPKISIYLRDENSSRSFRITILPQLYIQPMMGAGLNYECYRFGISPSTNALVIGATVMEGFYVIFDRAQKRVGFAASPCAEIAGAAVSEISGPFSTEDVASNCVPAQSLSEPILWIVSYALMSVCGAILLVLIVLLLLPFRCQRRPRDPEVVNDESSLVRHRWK
Summary of the method: as §1

IC50 [1] [µM]	IC50 [2] [µM]	IC50 [3] [µM]	IC50 [4] [µM]	IC50 ([1]; BACE1 cell-based assay) [µM]	IC50 ([2]; BACE1 FRET enzyme assay) [µM]	IC50 ([3]; Cathepsin D FRET enzyme assay) [µM]	IC50 ([4]; BACE2 FRET enzyme assay) [µM]	SMILES
0.0142	0.00169	1700	0.13					COC[C@]12C[C@H]1[C@@](C)(c1cc(NC(=O)c3cnc(OCC(F)F)cn3)cc(F)c1F)N=C(N)S2 [Example 1025, N-(3-((1S,5S,6S)-3-amino-1-(methoxymethyl)-5-methyl-2-thia-4-azabicyclo[4.1.0]hept-3-en-5-yl)-4,5-difluorophenyl)-5-(2,2-difluoroethoxy)-2-pyrazinecarboxamide]
0.00686	0.00497	> 400	0.185					Cc1cc(OCC(F)(F)F)cnc1C(=O)Nc1cc(F)c(F)c([C@@]2(C)N=C(N)S[C@@]3(C#N)C[C@H]32)c1 [Example 1015, N-(3-((1S,5S,6S)-3-amino-1-cyano-5-methyl-2-thia-4-azabicyclo[4.1.0]hept-3-en-5-yl)-4,5-difluorophenyl)-3-methyl-5-(2,2,2-trifluoroethoxy)-2-pyridinecarboxamide]
				0.0065	0.00553	2810	0.00121	COC[C@]12C[C@H]1[C@@](CF)(c1cc(NC(=O)c3ccc(Cl)cn3)ccc1F)N=C(N)S2 [Example 40, N-(3-((1S,5S,6S)-3-amino-5-(fluoromethyl)-1-(methoxymethyl)-2-thia-4-azabicyclo[4.1.0]hept-3-en-5-yl)-4-fluorophenyl)-5-chloro-2-pyridinecarboxamide]
				0.00045	0.00045	349	0.0156	C#CCOc1cnc(C(=O)Nc2ccc(F)c([C@@]3(CF)N=C(N)S[C@@]4(CO)C[C@H]43)c2)cn1 [Example 53, N-(3-((1S,5S,6S)-3-amino-5-(fluoromethyl)-1-(hydroxymethyl)-2-thia-4-azabicyclo[4.1.0]hept-3-en-5-yl)-4-fluorophenyl)-5-(2-propyn-1-yloxy)-2-pyrazinecarboxamide]
0.0883	0.00272	> 400	0.263					C[C@]1(c2cc(NC(=O)c3ccc(OCC(F)(F)F)cn3)cc(F)c2F)N=C(N)S[C@@]2(C(F)F)C[C@@H]12 [Example 695, N-(3-((1S,5S,6S)-3-amino-1-(difluoromethyl)-5-methyl-2-thia-4-azabicyclo[4.1.0]hept-3-en-5-yl)-4,5-difluorophenyl)-5-(2,2,2-trifluoroethoxy)-2-pyridinecarboxamide]
0.00971	0.000395	> 133	0.00543					C#CCOc1ccc(C(=O)Nc2cc(F)c(F)c([C@@]3(C)N=C(N)S[C@@]4(S(C)(=O)=O)C[C@H]43)c2)nc1 [Example 743, N-(3-((1R,5S,6S)-3-amino-5-methyl-1-(methylsulfonyl)-2-thia-4-azabicyclo[4.1.0]hept-3-en-5-yl)-4,5-difluorophenyl)-5-(2-propyn-1-yloxy)-2-pyridinecarboxamide]
0.00204	0.000871	605	0.0371					C[C@]1(c2cc(Nc3nccc4nc(OCc5ncco5)cnc34)cnc2F)N=C(N)S[C@@]2(CF)C[C@H]21 [Example 602, N-(5-((1S,5S,6S)-3-amino-1-(fluoromethyl)-5-methyl-2-thia-4-azabicyclo[4.1.0]hept-3-en-5-yl)-6-fluoro-3-pyridinyl)-2-(1,3-oxazol-2-ylmethoxy)pyrido[3,4-b]pyrazin-5-amine]
				0.00271	0.00095	1490	0.0174	C#CCOc1cnc(C(=O)Nc2ccc(F)c([C@@]3(CF)N=C(N)S[C@@]4(CO)C[C@H]43)c2)c(C)n1 [Example 76, N-(3-((1S,5S,6S)-3-amino-5-(fluoromethyl)-1-(hydroxymethyl)-2-thia-4-azabicyclo[4.1.0]hept-3-en-5-yl)-4-fluorophenyl)-3-methyl-5-(2-propyn-1-yloxy)-2-pyrazinecarboxamide]
0.0435	0.0298	> 400	0.00394					COc1ncc(NC(=O)c2ccc(Cl)cn2)cc1[C@@]1(C)N=C(N)S[C@@]2(CF)C[C@H]21 [Example 624, N-(5-((1S,5S,6S)-3-amino-1-(fluoromethyl)-5-methyl-2-thia-4-azabicyclo[4.1.0]hept-3-en-5-yl)-6-methoxy-3-pyridinyl)-5-chloro-2-pyridinecarboxamide]
0.0245	0.00361	956	0.0755					Cc1ccnc(COc2cnc3c(Nc4cc(F)c(F)c([C@@]5(C)N=C(N)S[C@@]6(C(F)F)C[C@@H]56)c4)nccc3n2)n1 [Example 874, N-(3-((1S,5S,6S)-3-amino-1-(difluoromethyl)-5-methyl-2-thia-4-azabicyclo[4.1.0]hept-3-en-5-yl)-4,5-difluorophenyl)-2-((4-methyl-2-pyrimidinyl)methoxy)pyrido[3,4-b]pyrazin-5-amine]
0.0414	0.00213	243	0.072					C=C(C)COc1cnc(C(=O)Nc2cc(F)c(F)c([C@@]3(C)N=C(N)S[C@@]4(COC)C[C@H]43)c2)cn1 [Example 1030, N-(3-((1S,5S,6S)-3-amino-1-(methoxymethyl)-5-methyl-2-thia-4-azabicyclo[4.1.0]hept-3-en-5-yl)-4,5-difluorophenyl)-5-((2-methyl-2-propen-1-yl)oxy)-2-pyrazinecarboxamide]
0.104	0.0051	384	0.118					COC[C@]12C[C@H]1[C@@](C)(c1cc(Nc3ncc(F)c4cc(OCc5ncco5)cnc34)cc(F)c1F)N=C(N)S2 [Example 950, N-(3-((1S,5S,6S)-3-amino-1-(methoxymethyl)-5-methyl-2-thia-4-azabicyclo[4.1.0]hept-3-en-5-yl)-4,5-difluorophenyl)-5-fluoro-3-(1,3-oxazol-2-ylmethoxy)-1,7-naphthyridin-8-amine]
0.0194	0.0055	927	0.209					COC[C@]12C[C@H]1[C@@](C)(c1cc(NC(=O)c3cnc(OCCCF)cn3)cc(F)c1F)N=C(N)S2 [Example 740, N-(3-((1S,5S,6S)-3-amino-1-(methoxymethyl)-5-methyl-2-thia-4-azabicyclo[4.1.0]hept-3-en-5-yl)-4,5-difluorophenyl)-5-(3-fluoropropoxy)-2-pyrazinecarboxamide]
0.014	0.00404	693	0.00174					CC(=O)[C@]12C[C@H]1[C@@](C)(c1cc(NC(=O)c3ccc(Cl)cn3)cc(F)c1F)N=C(N)S2 [Example 906, N-(3-((1S,5S,6S)-1-acetyl-3-amino-5-methyl-2-thia-4-azabicyclo[4.1.0]hept-3-en-5-yl)-4,5-difluorophenyl)-5-chloro-2-pyridinecarboxamide]
0.00557	0.002	141	< 0.00203					C[C@]1(c2cc(NC(=O)c3ccc(Cl)cn3)ccc2F)N=C(N)S[C@]2(CO)[C@H]1C2(F)F [Example 704, N-(3-((1S,5S,6R)-3-amino-7,7-difluoro-1-(hydroxymethyl)-5-methyl-2-thia-4-azabicyclo[4.1.0]hept-3-en-5-yl)-4-fluorophenyl)-5-chloro-2-pyridinecarboxamide]
0.411	0.0918	996	0.0298					C[C@]1(c2cc(Nc3ncnc4cc(F)cnc34)cc(F)c2F)N=C(N)S[C@H]2C[C@H]21 [Example 636, (1S,5S,6S)-5-(2,3-difluoro-5-((7-fluoropyrido[3,2-d]pyrimidin-4-yl)amino)phenyl)-5-methyl-2-thia-4-azabicyclo[4.1.0]hept-3-en-3-amine]
				0.128	0.00682	34.1	0.0112	COC[C@@]12C[C@@H]1[C@@](CF)(c1cc(Nc3nccc4cc(C#N)cnc34)cc(F)c1F)N=C(N)S2 [Example 90, 8-((3-((1R,5S,6R)-3-amino-5-(fluoromethyl)-1-(methoxymethyl)-2-thia-4-azabicyclo[4.1.0]hept-3-en-5-yl)-4,5-difluorophenyl)amino)-1,7-naphthyridine-3-carbonitrile]
0.000539	0.00011	269	0.0149					C#C[C@H](C)Oc1cnc(C(=O)Nc2cc(F)c(F)c([C@@]3(C)N=C(N)S[C@@]4(C(=O)NC)C[C@H]43)c2)cn1 [Example 967, (1S,5S,6S)-3-amino-5-(2,3-difluoro-5-(((5-(((1S)-1-methyl-2-propyn-1-yl)oxy)-2-pyrazinyl)carbonyl)amino)phenyl)-N,5-dimethyl-2-thia-4-azabicyclo[4.1.0]hept-3-ene-1-carboxamide]
0.135	0.018	128	0.0223					C[C@]1(c2cc(Nc3nccc4[nH]c(=O)cnc34)cc(F)c2F)N=C(N)S[C@@]2(C(F)F)C[C@@H]12 [Example 896, 5-((3-((1S,5S,6S)-3-amino-1-(difluoromethyl)-5-methyl-2-thia-4-azabicyclo[4.1.0]hept-3-en-5-yl)-4,5-difluorophenyl)amino)pyrido[3,4-b]pyrazin-2(1H)-one]
